Data: US20180237424A1, “FGFR3 ANTAGONISTS” (INSERM (INSTITUT NATIONAL DE LA SANTE ET DE LA RECHERCHE …, priority 2015, published 2018)
One block for each molecule: values may come before it.

Legend:
[1] = target: FGFR3 WT (Homo sapiens, UniProt P22607); assay: in vitro inhibition of FGFR3 (WT); type: biochemical
[2] = target: T1, FGFR3-K650E (Homo sapiens, UniProt P22607, K650E); assay: in cellulo FGFR3 phosphorylation in HEK 293 VNR cells transfected with FGFR3-K650E (immunoprecipitation, western blot); type: cell-based
T1 construct: expressed in transfected cells; host or cells: HEK 293 VNR cells
T1 sequence (P22607 23-806 K650E): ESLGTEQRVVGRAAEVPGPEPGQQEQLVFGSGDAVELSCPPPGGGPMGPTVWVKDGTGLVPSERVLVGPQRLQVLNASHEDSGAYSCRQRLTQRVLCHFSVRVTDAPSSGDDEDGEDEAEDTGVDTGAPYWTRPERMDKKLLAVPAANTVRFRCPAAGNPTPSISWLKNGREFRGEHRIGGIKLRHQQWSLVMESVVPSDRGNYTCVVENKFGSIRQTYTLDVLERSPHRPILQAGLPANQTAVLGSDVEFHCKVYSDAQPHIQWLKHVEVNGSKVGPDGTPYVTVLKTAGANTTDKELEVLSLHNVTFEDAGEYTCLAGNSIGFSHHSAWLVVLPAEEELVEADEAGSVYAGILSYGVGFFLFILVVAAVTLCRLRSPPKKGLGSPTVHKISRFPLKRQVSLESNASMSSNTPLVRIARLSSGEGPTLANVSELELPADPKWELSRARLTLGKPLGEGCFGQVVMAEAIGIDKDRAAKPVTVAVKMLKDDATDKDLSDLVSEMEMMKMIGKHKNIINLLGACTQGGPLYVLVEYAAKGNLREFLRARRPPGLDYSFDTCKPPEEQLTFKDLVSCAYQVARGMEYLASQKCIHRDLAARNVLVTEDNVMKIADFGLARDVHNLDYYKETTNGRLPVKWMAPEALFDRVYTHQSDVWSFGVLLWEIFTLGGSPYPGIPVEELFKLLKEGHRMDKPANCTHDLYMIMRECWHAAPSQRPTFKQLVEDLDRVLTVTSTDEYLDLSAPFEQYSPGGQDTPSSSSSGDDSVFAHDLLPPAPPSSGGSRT

Sequence of FGFR3 WT (P22607 23-806): as the sequence (P22607 23-806 K650E) above, with E628K counted along it

Structure (SMILES): CC(=O)Nc1c(-c2noc(-c3ccc([N+](=O)[O-])cc3)n2)nn(-c2cccc(-c3cn(Cc4ccccc4)nn3)c2)c1C(=O)NCc1ccccc1 [Cpd 79]
inhibition at 10 µM [1]: 21% | inhibition at 50 µM [1]: 97%

Structure (SMILES): COC(=O)c1c(NC(C)=O)c(-c2noc(-c3ccccc3)n2)nn1-c1cccc(OC)c1 [Cpd 134, Methyl 4-acetamido-1-(3-methoxyphenyl)-3-(5-phenyl-1,2,4-oxadiazol-3-yl)-1H-pyrazole-5-carboxylate]
melting point: 186 to 188 °C

Structure (SMILES): COC(=O)c1c(NC(C)=O)c(-c2noc(-c3ccc([N+](=O)[O-])cc3)n2)nn1-c1cccc(-c2cn(Cc3ccccc3)nn2)c1 [Cpd 64]
IC50 ([1]; no qualifier printed (column % in vitro inhibition)): 2000 nM

Next, values leading:

melting point: 196 °C
Structure (SMILES): COC(=O)c1c(NC(C)=O)c(-c2noc(-c3ccc(N(C)C)cc3)n2)nn1-c1cccc(OC)c1 [Cpd 27, Methyl 4-acetamido-3-(5-(4-(dimethylamino)phenyl)-1,2,4-oxadiazol-3-yl)-1-(3-methoxyphenyl)-1H-pyrazole-5-carboxylate]

inhibition at 0.5 µM ([2]; HEK293, @ 500 nM, K650E): 0%
Structure (SMILES): COC(=O)c1c(NC(C)=O)c(-c2noc(-c3ccc([N+](=O)[O-])cc3)n2)nn1-c1cccc(OC)c1 [Cpd 25]

melting point: 248 °C
Structure (SMILES): COC(=O)c1c(NC(C)=O)c(-c2noc(-c3ccc([N+](=O)[O-])cc3)n2)nn1-c1cccc(OC)c1 [Example 2, Methyl 4-acetamido-1-(3-methoxyphenyl)-3-(5-(4-nitrophenyl)-1,2,4-oxadiazol-3-yl)-1H-pyrazole-5-carboxylate]

melting point: 224 °C | IC50 [2]: 150 nM
Structure (SMILES): COC(=O)c1c(NC(C)=O)c(-c2noc(-c3ccc(Br)cc3)n2)nn1-c1cccc(OC)c1 [Cpd 24, Methyl 4-acetamido-3-(5-(4-bromophenyl)-1,2,4-oxadiazol-3-yl)-1-(3-methoxyphenyl)-1H-pyrazole-5-carboxylate]
